Where a name gives a salt, the structure may show the parent alone. Read-outs that look alike come from different tables or passages of the source.
Tests used:
Bcl-xL-Beclin 1 complex [1] = biological target: T1, Bcl-xL-Beclin 1 complex (Homo sapiens, UniProt Q07817); assay: Concentration response FP reconfirmation of HTS hits; format: binding; details: for inhibition at 5 µM: read-out: Dose-response (% Inhibition) 5 μM; for inhibition at 10 µM: read-out: Dose-response (% Inhibition) 10 μM; for inhibition at 20 µM: read-out: Dose-response (% Inhibition) 20 μM; for inhibition at 40 µM: read-out: Dose-response (% Inhibition) 40 μM; for inhibition at 80 µM: read-out: Dose-response (% Inhibition) 80 μM; for inhibition at 160 µM: read-out: Dose-response (% Inhibition) 160 μM
T1 construct: made in house
T1 sequence (Q07817 whole entry, one chain of several): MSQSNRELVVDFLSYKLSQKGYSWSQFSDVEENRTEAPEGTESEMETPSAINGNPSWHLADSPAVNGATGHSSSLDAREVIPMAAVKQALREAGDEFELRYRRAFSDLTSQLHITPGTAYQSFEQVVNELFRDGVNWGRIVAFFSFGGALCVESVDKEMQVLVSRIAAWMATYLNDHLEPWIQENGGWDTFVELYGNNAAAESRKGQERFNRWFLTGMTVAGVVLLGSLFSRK
Procedure: (§1) Then the plates were read by Envision (Perkin Elmer, Waltham, MA). […] The hits were selected from library stocks and reconfirmed in a concentration response FP assay (6 doses ranging from 5 μM to 160 μM or 8 doses ranging from 0.5 μM to 60 μM).

Bcl-xL-Beclin 1 complex [2] = biological target: T1, Bcl-xL-Beclin 1 complex; assay: FP-based high-throughput screening, primary screen; format: binding; details: first screen; 40 μM compound, 2.5 μM Bcl-xL, 400 nM 20-mer
Description: Next, we optimized the FP competitive binding assay in a 384-well microplate format and carried out a small-scale HTS using a small library, which contains 6580 compounds from Prestwick, Microsource and our in-house CMLD library. Then, the FP assay was optimized and applied in screening the larger Chembridge library consisting of 43736 compounds. HTS cascades are shown in Supplementary Figure 1A–1B. […] All chemical structures can be found on the PubChem website (http://pubchem.ncbi.nlm.nih.gov/).
as §1

Row | SMILES | Primary Screen mP (Bcl-xL-Beclin 1 complex [2]) | inhibition at 5 µM (Bcl-xL-Beclin 1 complex [1]) | inhibition at 10 µM (Bcl-xL-Beclin 1 complex [1]) | inhibition at 20 µM (Bcl-xL-Beclin 1 complex [1]) | inhibition at 40 µM (Bcl-xL-Beclin 1 complex [1]) | inhibition at 80 µM (Bcl-xL-Beclin 1 complex [1]) | inhibition at 160 µM (Bcl-xL-Beclin 1 complex [1]) | inhibition at 40 µM (Bcl-xL-Beclin 1 complex [2]) | inhibition at 5 µM (Bcl-xL-Beclin 1 complex [1]; 5 μM, hits of first screen) | inhibition at 10 µM (Bcl-xL-Beclin 1 complex [1]; 10 μM, hits of first screen) | inhibition at 20 µM (Bcl-xL-Beclin 1 complex [1]; 20 μM, hits of first screen) | inhibition at 40 µM (Bcl-xL-Beclin 1 complex [1]; 40 μM, hits of first screen) | inhibition at 80 µM (Bcl-xL-Beclin 1 complex [1]; 80 μM, hits of first screen) | inhibition at 160 µM (Bcl-xL-Beclin 1 complex [1]; 160 μM, hits of first screen) | also measured
1 | C[n+]1c2cc(N)ccc2cc2ccc(N)cc21.[Cl-] [Compound A26, ACRIFLAVINIUM HYDROCHLORIDE] | -3.2 mP | – | – | – | – | – | – | – | – | – | – | – | – | – | Dose-response (% Inhibition) 5 μM (Bcl-xL-Beclin 1 complex [1]; 5 μM, hits of first screen): 102.5%; Dose-response (% Inhibition) 10 μM (Bcl-xL-Beclin 1 complex [1]; 10 μM, hits of first screen): 102.5%; Dose-response (% Inhibition) 20 μM (Bcl-xL-Beclin 1 complex [1]; 20 μM, hits of first screen): 102.5%; Dose-response (% Inhibition) 40 μM (Bcl-xL-Beclin 1 complex [1]; 40 μM, hits of first screen): 102.5%; Dose-response (% Inhibition) 80 μM (Bcl-xL-Beclin 1 complex [1]; 80 μM, hits of first screen): 102.0%; Dose-response (% Inhibition) 160 μM (Bcl-xL-Beclin 1 complex [1]; 160 μM, hits of first screen): 102.4%; Primary Screen % Inhibition (Bcl-xL-Beclin 1 complex [2]): 102.40%
2 | O=C1C(Cl)=C(Cl)C(=O)C(Cl)=C1Cl [Compound A27, CHLORANIL] | 140.9 mP | -3% | 19.4% | 22.6% | 23.4% | 28.5% | 35.9% | 27.8% | – | – | – | – | – | – | –
3 | CC1=NCCc2c1[nH]c1cc(O)ccc21 [Compound A28, HARMALOL HYDROCHLORIDE] | 56.2 mP | – | – | – | – | – | – | 60% | 19.2% | 31.2% | 41.6% | 56.8% | 73% | 86.2% | –
4 | Cc1cc2nc3c(=O)[nH]c(=O)nc-3n(C[C@H](O)[C@H](O)[C@H](O)CO)c2cc1C [Compound A31, RIBOFLAVIN] | -3.2 mP | – | – | – | – | – | – | 102% | 67.6% | 77.7% | 103% | 99.7% | 102% | 103% | –
5 | CCN(CC)CCNC(=O)COc1ccc(OC)cc1.Cl [Compound A32, MEFEXAMIDE HYDROCHLORIDE] | 119.7 mP | – | – | – | – | – | – | – | – | – | – | – | – | – | Dose-response (% Inhibition) 5 μM (Bcl-xL-Beclin 1 complex [1]; 5 μM, hits of first screen): -1.5%; Dose-response (% Inhibition) 10 μM (Bcl-xL-Beclin 1 complex [1]; 10 μM, hits of first screen): 2.6%; Dose-response (% Inhibition) 20 μM (Bcl-xL-Beclin 1 complex [1]; 20 μM, hits of first screen): 4.3%; Dose-response (% Inhibition) 40 μM (Bcl-xL-Beclin 1 complex [1]; 40 μM, hits of first screen): 11.2%; Dose-response (% Inhibition) 80 μM (Bcl-xL-Beclin 1 complex [1]; 80 μM, hits of first screen): 23.1%; Dose-response (% Inhibition) 160 μM (Bcl-xL-Beclin 1 complex [1]; 160 μM, hits of first screen): 32.1%; Primary Screen % Inhibition (Bcl-xL-Beclin 1 complex [2]): 14.40%
6 | O=C(O)c1cc(O)c2c(c1)[C@H]([C@H]1c3cc(C(=O)O)cc(O)c3C(=O)c3c(O[C@@H]4O[C@H](CO)[C@@H](O)[C@H](O)[C@H]4O)cccc31)c1cccc(O[C@@H]3O[C@H](CO)[C@@H](O)[C@H](O)[C@H]3O)c1C2=O [Compound A34, SENNOSIDE A] | 119.9 mP | – | – | – | – | – | – | 12.8% | 0.5% | 4.7% | 6.3% | 12% | 22.5% | 20.9% | –
7 | O=C(O)c1cc(O)c2c(c1)[C@@H]([C@H]1c3cc(C(=O)O)cc(O)c3C(=O)c3c(O[C@@H]4O[C@H](CO)[C@@H](O)[C@H](O)[C@H]4O)cccc31)c1cccc(O[C@@H]3O[C@H](CO)[C@@H](O)[C@H](O)[C@H]3O)c1C2=O [Compound A35, SENNOSIDE B] | 120.4 mP | – | – | – | – | – | – | 14.3% | 2.7% | 4.1% | 5.8% | 13.6% | 21.1% | 19.9% | –
8 | COc1cccc2c1C(=O)c1c(O)c3c(c(O)c1C2=O)C[C@@](O)(C(C)=O)C[C@@H]3O[C@H]1C[C@H](N)[C@H](O)[C@H](C)O1 [Compound A36, DAUNORUBICIN] | 75.5 mP | 22.8% | 33.4% | 41% | 44.4% | 51.9% | 56% | 45.8% | – | – | – | – | – | – | –
9 | Cc1cc2c(C(C)C)c(O)c(O)c(C=O)c2c(O)c1-c1c(C)cc2c(C(C)C)c(O)c(O)c(C=O)c2c1O [Compound A38, GOSSYPOL] | 125.4 mP | 2.7% | 4.8% | 5.4% | 8.4% | 14.7% | 18.3% | 10.8% | – | – | – | – | – | – | –
10 | O=C(Nc1ccccc1)c1ccccc1O [Compound A39, SALICYLANILIDE] | -3.2 mP | 103% | 103% | 103% | 99.7% | 102% | 103% | 102% | – | – | – | – | – | – | –
11 | CC[N+](C)(CC)CCC[n+]1c(-c2ccccc2)c2cc(N)ccc2c2ccc(N)cc21.[I-].[I-] [Compound A40, PROPIDIUM IODIDE] | 123.6 mP | – | – | – | – | – | – | – | – | – | – | – | – | – | Dose-response (% Inhibition) 5 μM (Bcl-xL-Beclin 1 complex [1]; 5 μM, hits of first screen): 0.5%; Dose-response (% Inhibition) 10 μM (Bcl-xL-Beclin 1 complex [1]; 10 μM, hits of first screen): -0.2%; Dose-response (% Inhibition) 20 μM (Bcl-xL-Beclin 1 complex [1]; 20 μM, hits of first screen): 1.2%; Dose-response (% Inhibition) 40 μM (Bcl-xL-Beclin 1 complex [1]; 40 μM, hits of first screen): 4.4%; Dose-response (% Inhibition) 80 μM (Bcl-xL-Beclin 1 complex [1]; 80 μM, hits of first screen): 12.1%; Dose-response (% Inhibition) 160 μM (Bcl-xL-Beclin 1 complex [1]; 160 μM, hits of first screen): 18.3%; Primary Screen % Inhibition (Bcl-xL-Beclin 1 complex [2]): 7.08%
